Data from patent US6281342A, “Pradimicin compounds” (Bristol-Myers Squibb Company, priority 1994, dated 2001).
Values after ≈ are worked out from the molar mass of the structure shown. Where two headings read alike, the source gives them in different places.

Columns and labels:
[1] = tested on: Saccharomyces cerevisiae ATCC 9763; assay: MIC, two-fold agar dilution, S. cerevisiae ATCC 9763; assay type: cell-based; conditions: ATCC9763, YMA pH 7.0, 28° C., 40 hours
Method: (§1) Minimum inhibitory concentrations (MICs) of nine 4'-N-substituted pradimicin derivatives were determined by two-fold agar dilution method on phosphate-buffered yeast morphology agar (YMA, pH 7.0, Difco Laboratories). A 5-μl of fungal cell suspension containing 2×10^6 cells/ml (2×10^7 cells/ml for Trichophyton mentagrophytes) were spotted on the surface of the agar plates containing test compound. MICs were recorded after 40-hour incubation at 28° C. except for T. mentagrophytes, which required 60-hour incubation to produce visually evaluable growth on the drug-free control plates and were defined as the lowest antibiotic concentrations showing no growth or less than five discrete colonies per spot.
(§2) Medium: yeast morphology agar + 1/15 M phosphate buffer (pH 7.0)
(§3) Incubation conditions: 28° C., 40 hours (C. albicans ATCC 38247 & T.
(§4) Medium: Yeast morphology agar + 1/15 phosphate buffer (pH 7.0).

[2] = tested on: Cryptococcus neoformans D49; assay: MIC, two-fold agar dilution, C. neoformans D49; assay type: cell-based; conditions: YMA pH 7.0, 28° C., 40 hours
Method: as §1, §2, §3, §4

Candida albicans A9540 [3] = assay: animal or person; assay type: in vivo, male ICR mice infected with Candida albicans A9540
Method: (§5) The in vivo therapeutic efficacies of seven 4'-N-substituted pradimicin derivatives, KHM-1, KHM-2, KHM-3, KHM-4, KHM-5, KHM-6 and KHM-7 were evaluated in the mouse infected with Candida albicans A9540 and Aspergillus fumigatusIAM 2034. Groups of five specific-pathogen-free male ICR mice weighing 20-25 g at each dose level were intravenously infected with approximately 10 times the 50% lethal dose of C. albicans A9540 (1×10^6 cells/mouse) or A. fumigatus IAM 2034 (1×10^7 cells/mouse). Immediately after the fungal infection, test compounds dissolved with 10% DMSO in distilled water were intravenously given to the mouse at the dosed volume of 0.1 ml/10 g of body weight. […] Untreated control animals died 7 to 13 days post-infection.

Candida tropicalis 85-8 = assay: MIC, two-fold agar dilution, C. tropicalis 85-8; assay type: cell-based; conditions: 858, YMA pH 7.0, 28° C., 40 hours
Method: as §1, §2, §3, §4

Candida albicans 83-2-14 = assay: MIC, two-fold agar dilution, C. albicans 83-2-14; assay type: cell-based; conditions: 83214, YMA pH 7.0, 28° C., 40 hours
Method: as §1, §2, §3, §4

[4] = tested on: Candida albicans IAM 4888; assay: MIC, two-fold agar dilution, C. albicans IAM 4888; assay type: cell-based; conditions: IAM4888, YMA pH 7.0, 28° C., 40 hours
Method: as §1, §2, §3, §4

[5] = Water solubility at neutral pH in PBS containing Ca^2+/Mg^2+; assay type: physicochemical; conditions: pbs with ca2+/mg2+; Table 3; water-solubility at neutral pH in phosphate buffered saline containing Ca^2+/Mg^2+
Method: The compounds of the invention have good water solubility. Typically, the water solubility is greater than 10 mg/ml when measured at neutral pH in PBS containing Ca^2+ /Mg^2+, preferably greater than 20 mg/ml.
^2) Water-solubility at neutral pH in phosphate buffered saline
containing Ca^2+ /Mg^2+.

Candida albicans A9540 [6] = assay: MIC, two-fold agar dilution, C. albicans A9540; assay type: cell-based
Method: as §1, §2, §3, §4

[7] = tested on: Candida albicans ATCC 32354; assay: MIC, two-fold agar dilution, C. albicans ATCC 32354; assay type: cell-based; conditions: ATCC32354, YMA pH 7.0, 28° C., 40 hours
Method: as §1, §2, §3, §4

[8] = tested on: Candida albicans ATCC 38247; assay: MIC, two-fold agar dilution, C. albicans ATCC 38247; assay type: cell-based; conditions: ATCC38247, YMA pH 7.0, 28° C., 60 hours (table footnote)
Method: as §1, §2, §3
(§6) mentagrophytes #4329: 28° C., 60 hours).
as §4

[9] = tested on: Aspergillus fumigatus IAM 2034; assay: MIC, two-fold agar dilution, A. fumigatus IAM 2034; assay type: cell-based; conditions: IAM2034
Method: as §1, §2, §3, §4

[10] = tested on: Trichophyton mentagrophytes #4329; assay: MIC, two-fold agar dilution, T. mentagrophytes #4329; assay type: cell-based
Method: as §1, §2, §3, §6, §4

[11] = tested on: Candida tropicalis IFO 10241; assay: MIC, two-fold agar dilution, C. tropicalis IFO 10241; assay type: cell-based; conditions: IFO10241, YMA pH 7.0, 28° C., 40 hours
Method: as §1, §2, §3, §4

[12] = tested on: Cryptococcus neoformans IAM 4514; assay: MIC, two-fold agar dilution, C. neoformans IAM 4514; assay type: cell-based; conditions: IAM4514
Method: as §1, §2, §3, §4

[13] = tested on: Aspergillus fumigatus IAM 2034; assay: Therapeutic efficacy in Aspergillus fumigatus systemic infection in mice; assay type: in vivo, male ICR mice infected with Aspergillus fumigatus IAM 2034; conditions: IAM2034, 480 h; for responders at 6.3 mg/kg: 6.3 mg/kg iv; for responders at 6.3 mg/kg / responders at 12.5 mg/kg / responders at 25 mg/kg / responders at 50 mg/kg: 20th day post-infection, read-out: S/T (No. of survivors/tested) (converted); for responders at 12.5 mg/kg: 12.5 mg/kg iv; for responders at 25 mg/kg: 25 mg/kg iv; for responders at 50 mg/kg: 50 mg/kg iv
Method: as §5

[14] = Candida albicans, A9540, 480 h, Table 2, C. albicans, mice, iv, 95% confidence limits in parentheses, read-out: PD50 (50% protection dose)
[15] = Candida albicans, A9540, in Mus musculus, iv, 480 h, read-out: S/T (No. of survivors/tested)
[16] = Candida albicans A9540, YMA pH 7.0, 28° C., 40 hours, read-out: MIC
[17] = Table 3, Candida albicans A9540, YMA, read-out: MIC Ca-4
[18] = Aspergillus fumigatus IAM 2034, YMA pH 7.0, 28° C., 40 hours, read-out: MIC
[19] = Table 3, Aspergillus fumigatus IAM 2034, YMA, read-out: MIC Af-3
[20] = Table 3, Trichophyton mentagrophytes #4329, YMA, read-out: MIC TM-4
[21] = Trichophyton mentagrophytes #4329, YMA pH 7.0, 28° C., 60 hours, read-out: MIC
[22] = Cryptococcus neoformans IAM 4514, YMA pH 7.0, 28° C., 40 hours, read-out: MIC
[23] = Table 3, Cryptococcus neoformans IAM 4514, YMA, read-out: MIC Cn-2
[24] = Aspergillus fumigatus, A. fumigatus, mice
[25] = Aspergillus fumigatus, Table 2, A. fumigatus, mice, iv, 95% confidence limits in parentheses, read-out: PD50 (50% protection dose)
[26] = Candida albicans, A9540, 480 h, C. albicans, mice, 6.3 mg/kg iv, 20th day post-infection, read-out: S/T (No. of survivors/tested) (converted)
[27] = Candida albicans, A9540, 480 h, C. albicans, mice, 12.5 mg/kg iv, 20th day post-infection, read-out: S/T (No. of survivors/tested) (converted)
[28] = Candida albicans, A9540, 480 h, C. albicans, mice, 25 mg/kg iv, 20th day post-infection, read-out: S/T (No. of survivors/tested) (converted)
[29] = Candida albicans, A9540, 480 h, C. albicans, mice, 50 mg/kg iv, 20th day post-infection, read-out: S/T (No. of survivors/tested) (converted)

| SMILES | MIC [1] | MIC [2] | ED50 (Candida albicans A9540 [3]; [14]) | MIC (Candida tropicalis 85-8) | MIC (Candida albicans 83-2-14) | solubility [5] | MIC (Candida albicans A9540 [6]; [16]) | MIC (Candida albicans A9540 [6]; [17]) | MIC [7] | MIC [8] | MIC [9, 18] | MIC [9, 19] | MIC [10, 20] | MIC [10, 21] | MIC [11] | MIC [12, 22] | MIC [12, 23] | responders at 6.3 mg/kg [13, 24] | responders at 12.5 mg/kg [13, 24] | responders at 25 mg/kg [13, 24] | other results |
| --- | --- | --- | --- | --- | --- | --- | --- | --- | --- | --- | --- | --- | --- | --- | --- | --- | --- | --- | --- | --- | --- |
| COc1cc(O)c2c(c1)C(=O)c1c(cc3c(c1O)-c1c(cc(C)c(C(=O)N[C@H](C)C(=O)O)c1O)[C@H](O[C@@H]1O[C@H](C)[C@H](N(C)N=O)[C@H](O[C@@H]4OC[C@@H](O)[C@H](O)[C@H]4O)[C@H]1O)[C@H]3O)C2=O [KHM-6, 4'-N-Nitrosopradimicin A] | 3.1 µg/mL (≈ 3.56 µM) | 1.6 µg/mL (≈ 1.84 µM) | 27 mg/kg | 12.5 µg/mL (≈ 14.4 µM) | 6.3 µg/mL (≈ 7.24 µM) | > 20000 µg/mL | 6.3 µg/mL (≈ 7.24 µM) | 6.3 µg/mL (≈ 7.24 µM) | 3.1 µg/mL (≈ 3.56 µM) | 1.6 µg/mL (≈ 1.84 µM) | 3.1 µg/mL (≈ 3.56 µM) | 3.1 µg/mL (≈ 3.56 µM) | 3.1 µg/mL (≈ 3.56 µM) | 3.1 µg/mL (≈ 3.56 µM) | 12.5 µg/mL (≈ 14.4 µM) | 1.6 µg/mL (≈ 1.84 µM) | 1.6 µg/mL (≈ 1.84 µM) | 0% | 40% | 0% | responders at 6.3 mg/kg (Candida albicans A9540 [3]; [15]): 0%; responders at 12.5 mg/kg (Candida albicans A9540 [3]; [15]): 20%; responders at 25 mg/kg (Candida albicans A9540 [3]; [15]): 20%; responders at 50 mg/kg (Candida albicans A9540 [3]; [15]): 80%; MIC [4]: 6.3 µg/mL (≈ 7.24 µM); responders at 50 mg/kg [13, 24]: 40%; ED50 [13, 25]: > 50 mg/kg; ED50 ([13]; Table 3, Aspergillus fumigatus IAM 2034, iv, read-out: PD50 (mice) Af-3): > 50 mg/kg |
| CN[C@@H]1[C@H](O[C@@H]2OC[C@@H](O)[C@H](O)[C@H]2O)[C@@H](O)[C@H](O[C@H]2c3cc(C)c(C(=O)N[C@H](CO)C(=O)O)c(O)c3-c3c(cc4c(c3O)C(=O)c3cc(OC)cc(O)c3C4=O)[C@@H]2O)O[C@@H]1C [Pradimicin FA-1, reference compound] | 1.6 µg/mL (≈ 1.87 µM) | 1.6 µg/mL (≈ 1.87 µM) | 18 mg/kg | 6.3 µg/mL (≈ 7.35 µM) | 6.3 µg/mL (≈ 7.35 µM) | 260 µg/mL (≈ 303 µM) | 6.3 µg/mL (≈ 7.35 µM) | 6.3 µg/mL (≈ 7.35 µM) | 3.1 µg/mL (≈ 3.62 µM) | 1.6 µg/mL (≈ 1.87 µM) | 1.6 µg/mL (≈ 1.87 µM) | 1.6 µg/mL (≈ 1.87 µM) | 1.6 µg/mL (≈ 1.87 µM) | 1.6 µg/mL (≈ 1.87 µM) | 6.3 µg/mL (≈ 7.35 µM) | 0.8 µg/mL (≈ 0.934 µM) | 0.8 µg/mL (≈ 0.934 µM) | 0% | 20% | 40% | responders at 6.3 mg/kg (Candida albicans A9540 [3]; [26]): 0%; responders at 12.5 mg/kg (Candida albicans A9540 [3]; [27]): 20%; responders at 25 mg/kg (Candida albicans A9540 [3]; [28]): 80%; responders at 50 mg/kg (Candida albicans A9540 [3]; [29]): 100%; responders at 50 mg/kg [13, 24]: 80%; ED50 [13, 25]: 27 mg/kg |
| COc1cc(O)c2c(c1)C(=O)c1c(cc3c(c1O)-c1c(cc(C)c(C(=O)N[C@H](CO)C(=O)O)c1O)[C@H](O[C@@H]1O[C@H](C)[C@H](N)[C@H](O[C@@H]4OC[C@@H](O)[C@H](O)[C@H]4O)[C@H]1O)[C@H]3O)C2=O [Pradimicin FA-2, reference compound] | 1.6 µg/mL (≈ 1.9 µM) | 1.6 µg/mL (≈ 1.9 µM) | 7.7 mg/kg | 6.3 µg/mL (≈ 7.48 µM) | 6.3 µg/mL (≈ 7.48 µM) | 20 µg/mL (≈ 23.7 µM) | 6.3 µg/mL (≈ 7.48 µM) | 6.3 µg/mL (≈ 7.48 µM) | 3.1 µg/mL (≈ 3.68 µM) | 1.6 µg/mL (≈ 1.9 µM) | 1.6 µg/mL (≈ 1.9 µM) | 1.6 µg/mL (≈ 1.9 µM) | 3.1 µg/mL (≈ 3.68 µM) | 3.1 µg/mL (≈ 3.68 µM) | 6.3 µg/mL (≈ 7.48 µM) | 1.6 µg/mL (≈ 1.9 µM) | 1.6 µg/mL (≈ 1.9 µM) | – | – | – | ED50 (Candida albicans A9540 [3]; 480 h, Table 3, Candida albicans A9540, iv, read-out: PD50 (mice) Ca-4): 7.4 mg/kg; responders at 6.3 mg/kg (Candida albicans A9540 [3]; [26]): 40%; responders at 12.5 mg/kg (Candida albicans A9540 [3]; [27]): 80%; responders at 25 mg/kg (Candida albicans A9540 [3]; [28]): 100%; responders at 50 mg/kg (Candida albicans A9540 [3]; [29]): 100% |
